# From patent publication US9340590B2 (priority 2011, dated 2016)
# Where two headings read alike, the source gives them in different places. Positions of bridges follow the written chain, without caps; N, C: chain ends. Non-standard residues stand in square brackets, D forms with d. Residues, ends and D or L forms follow the SMILES beside them. Arg(Me2s) = CN=C(NC)NCCC[C@H](N)C(=O)O
# Key:
# Assay in all cases: cell-based
# hNav1.7 = hNav1.7 (Homo sapiens, UniProt Q15858); format: cell-based
# hNav1.5 = hNav1.5 (Homo sapiens, UniProt Q14524)
# hNav1.3 = hNav1.3 (Homo sapiens, UniProt Q9NY46); settings: IonWorks Quattro, read-out: IWQ Use Nav1.3
# [1] = IonWorks Quattro, use-dependent block, hNav1.7, read-out: IWQ Use Nav1.7
# [2] = IonWorks Quattro, use-dependent block, hNav1.5, read-out: IWQ Use Nav1.5
# [3] = Table 25, IonWorks Quattro, use, […], read-out: IWQ Use Nav1.7
# [4] = Table 25, IonWorks Quattro, use, […], read-out: IWQ Use Nav1.5
# Sequence of hNav1.5 (Q14524 whole entry, looked up): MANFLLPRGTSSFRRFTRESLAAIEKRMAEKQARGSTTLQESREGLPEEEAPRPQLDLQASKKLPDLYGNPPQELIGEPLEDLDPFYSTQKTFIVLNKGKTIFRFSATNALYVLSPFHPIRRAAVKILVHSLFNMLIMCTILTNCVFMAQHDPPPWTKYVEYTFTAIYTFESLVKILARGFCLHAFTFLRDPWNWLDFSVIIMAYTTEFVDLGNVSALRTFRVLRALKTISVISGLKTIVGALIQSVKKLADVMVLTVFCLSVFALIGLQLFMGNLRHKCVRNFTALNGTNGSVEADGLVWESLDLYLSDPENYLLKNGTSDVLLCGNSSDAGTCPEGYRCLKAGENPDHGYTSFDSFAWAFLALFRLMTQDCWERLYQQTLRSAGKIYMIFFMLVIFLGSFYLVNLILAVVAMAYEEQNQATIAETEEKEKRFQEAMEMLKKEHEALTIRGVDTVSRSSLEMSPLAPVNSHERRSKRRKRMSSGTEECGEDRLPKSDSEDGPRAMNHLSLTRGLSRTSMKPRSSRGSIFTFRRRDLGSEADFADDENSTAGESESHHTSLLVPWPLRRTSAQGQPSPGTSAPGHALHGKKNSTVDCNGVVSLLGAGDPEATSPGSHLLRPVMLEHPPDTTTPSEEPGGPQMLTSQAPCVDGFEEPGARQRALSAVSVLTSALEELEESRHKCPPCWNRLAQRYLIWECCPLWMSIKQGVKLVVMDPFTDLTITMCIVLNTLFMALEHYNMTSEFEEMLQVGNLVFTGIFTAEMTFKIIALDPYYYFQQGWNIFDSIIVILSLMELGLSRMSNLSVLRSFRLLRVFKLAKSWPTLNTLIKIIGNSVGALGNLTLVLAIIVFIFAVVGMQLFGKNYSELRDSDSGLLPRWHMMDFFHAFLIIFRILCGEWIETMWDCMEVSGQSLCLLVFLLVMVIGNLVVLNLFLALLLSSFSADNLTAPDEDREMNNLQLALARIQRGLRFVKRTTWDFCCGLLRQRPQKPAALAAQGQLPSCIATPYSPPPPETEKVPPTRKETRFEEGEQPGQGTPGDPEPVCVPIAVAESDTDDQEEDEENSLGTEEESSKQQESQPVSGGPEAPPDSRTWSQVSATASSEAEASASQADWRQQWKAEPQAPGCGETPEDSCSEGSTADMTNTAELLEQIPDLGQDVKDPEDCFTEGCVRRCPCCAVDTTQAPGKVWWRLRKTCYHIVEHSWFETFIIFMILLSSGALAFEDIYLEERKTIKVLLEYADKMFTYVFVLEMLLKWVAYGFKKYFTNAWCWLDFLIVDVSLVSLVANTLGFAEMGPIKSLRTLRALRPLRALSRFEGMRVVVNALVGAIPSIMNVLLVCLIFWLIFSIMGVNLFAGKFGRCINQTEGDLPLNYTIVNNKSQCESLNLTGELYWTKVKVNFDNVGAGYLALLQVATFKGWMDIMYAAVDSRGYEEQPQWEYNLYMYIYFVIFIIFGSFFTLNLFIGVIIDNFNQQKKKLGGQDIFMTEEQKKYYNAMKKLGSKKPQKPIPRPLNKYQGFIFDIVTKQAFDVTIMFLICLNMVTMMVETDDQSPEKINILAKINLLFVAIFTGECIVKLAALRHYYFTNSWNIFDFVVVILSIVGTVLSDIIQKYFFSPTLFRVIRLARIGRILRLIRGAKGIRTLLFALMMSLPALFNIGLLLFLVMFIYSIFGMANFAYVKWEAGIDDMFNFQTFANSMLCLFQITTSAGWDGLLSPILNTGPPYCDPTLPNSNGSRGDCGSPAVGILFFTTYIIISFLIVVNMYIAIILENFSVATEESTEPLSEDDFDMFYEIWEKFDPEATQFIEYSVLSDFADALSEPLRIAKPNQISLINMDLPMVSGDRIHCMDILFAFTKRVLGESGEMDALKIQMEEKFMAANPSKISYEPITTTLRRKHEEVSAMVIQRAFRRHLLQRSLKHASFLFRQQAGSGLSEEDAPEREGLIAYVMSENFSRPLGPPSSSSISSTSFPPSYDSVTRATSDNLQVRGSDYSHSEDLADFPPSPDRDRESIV
# Sequence of hNav1.3 (Q9NY46 whole entry, looked up): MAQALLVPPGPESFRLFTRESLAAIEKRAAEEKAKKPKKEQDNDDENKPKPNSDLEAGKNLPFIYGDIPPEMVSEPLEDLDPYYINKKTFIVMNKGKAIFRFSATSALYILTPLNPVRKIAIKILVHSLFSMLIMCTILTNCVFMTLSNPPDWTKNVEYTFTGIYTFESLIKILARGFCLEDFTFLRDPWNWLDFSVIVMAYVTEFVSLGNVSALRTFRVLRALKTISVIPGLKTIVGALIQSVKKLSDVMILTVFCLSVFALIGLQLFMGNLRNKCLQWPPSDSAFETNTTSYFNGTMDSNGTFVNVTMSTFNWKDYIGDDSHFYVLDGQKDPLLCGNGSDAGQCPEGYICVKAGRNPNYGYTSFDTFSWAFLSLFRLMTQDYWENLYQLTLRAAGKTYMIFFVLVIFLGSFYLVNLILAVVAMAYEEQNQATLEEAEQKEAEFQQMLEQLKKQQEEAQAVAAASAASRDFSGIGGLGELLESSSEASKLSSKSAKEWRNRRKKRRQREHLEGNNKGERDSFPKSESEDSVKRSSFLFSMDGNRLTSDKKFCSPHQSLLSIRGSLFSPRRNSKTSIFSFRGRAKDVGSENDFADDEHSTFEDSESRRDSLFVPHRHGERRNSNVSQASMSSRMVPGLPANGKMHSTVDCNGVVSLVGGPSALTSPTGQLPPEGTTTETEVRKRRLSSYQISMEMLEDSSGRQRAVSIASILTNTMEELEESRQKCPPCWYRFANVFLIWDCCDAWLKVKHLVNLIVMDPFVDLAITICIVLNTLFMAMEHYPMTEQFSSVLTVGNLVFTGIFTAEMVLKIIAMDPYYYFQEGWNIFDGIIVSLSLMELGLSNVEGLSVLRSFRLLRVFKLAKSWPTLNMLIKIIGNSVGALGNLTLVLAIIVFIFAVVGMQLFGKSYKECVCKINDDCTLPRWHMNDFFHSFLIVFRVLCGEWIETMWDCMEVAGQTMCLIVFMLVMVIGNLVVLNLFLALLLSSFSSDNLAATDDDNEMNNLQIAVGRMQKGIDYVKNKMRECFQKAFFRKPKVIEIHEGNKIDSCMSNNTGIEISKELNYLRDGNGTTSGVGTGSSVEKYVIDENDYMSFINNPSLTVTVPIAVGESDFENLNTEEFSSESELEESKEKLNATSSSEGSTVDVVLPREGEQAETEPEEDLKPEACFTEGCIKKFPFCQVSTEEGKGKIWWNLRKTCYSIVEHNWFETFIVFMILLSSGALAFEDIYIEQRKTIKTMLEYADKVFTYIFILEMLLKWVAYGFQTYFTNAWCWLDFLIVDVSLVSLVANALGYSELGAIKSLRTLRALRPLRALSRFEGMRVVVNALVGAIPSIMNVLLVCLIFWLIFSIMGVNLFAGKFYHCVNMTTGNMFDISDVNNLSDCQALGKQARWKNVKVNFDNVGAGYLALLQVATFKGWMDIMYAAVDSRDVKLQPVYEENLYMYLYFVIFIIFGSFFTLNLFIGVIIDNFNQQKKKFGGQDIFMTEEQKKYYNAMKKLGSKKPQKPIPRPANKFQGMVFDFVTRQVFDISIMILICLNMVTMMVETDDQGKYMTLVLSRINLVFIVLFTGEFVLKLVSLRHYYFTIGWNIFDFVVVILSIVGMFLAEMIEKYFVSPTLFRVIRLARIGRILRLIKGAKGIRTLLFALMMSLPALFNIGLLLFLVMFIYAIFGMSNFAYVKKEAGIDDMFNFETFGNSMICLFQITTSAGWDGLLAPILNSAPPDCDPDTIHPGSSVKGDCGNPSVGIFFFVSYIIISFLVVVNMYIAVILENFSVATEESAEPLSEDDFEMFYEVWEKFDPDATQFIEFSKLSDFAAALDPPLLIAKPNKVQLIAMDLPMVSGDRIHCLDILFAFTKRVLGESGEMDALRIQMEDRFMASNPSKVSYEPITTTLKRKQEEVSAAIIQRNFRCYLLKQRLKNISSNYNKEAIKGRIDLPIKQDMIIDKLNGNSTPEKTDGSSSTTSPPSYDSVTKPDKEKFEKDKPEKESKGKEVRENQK
compound,measurement,setting,value
"CC[C@H](C)[C@@H]1NC(=O)[C@@H]2CSSC[C@@H]3NC(=O)[C@H](C(C)C)NC(=O)[C@H](CC(C)C)NC(=O)[C@H](CC(N)=O)NC(=O)[C@@H]4CCCN4C(=O)[C@H](CCCNC(=N)N)NC(=O)[C@H](CSSC[C@H](NC(=O)[C@@H](N)CC(=O)O)C(=O)N[C@@H](CC(C)C)C(=O)NCC(=O)N[C@@H](Cc4ccccc4)C(=O)N[C@@H](CCSC)C(=O)N[C@@H](CCCNC(=N)N)C(=O)N[C@@H](CCCCN)C(=O)N2)NC(=O)[C@H](CSSC[C@@H](C(=O)N[C@@H](CCCCN)C(=O)N[C@@H](Cc2ccc(O)cc2)C(=O)N[C@@H](Cc2ccccc2)C(=O)N[C@@H](Cc2ccccc2)C(N)=O)NC(=O)[C@H](Cc2c[nH]c4ccccc24)NC(=O)[C@H](CCCCN)NC(=O)[C@H](Cc2c[nH]cn2)NC(=O)[C@H]([C@@H](C)O)NC(=O)[C@H](CCCNC(=N)N)NC(=O)[C@H](CO)NC3=O)NC(=O)[C@H](CCCCN)NC(=O)[C@H](CC(=O)O)NC(=O)[C@H](CC(N)=O)NC(=O)[C@H](CC(=O)O)NC(=O)[C@@H]2CCCN2C1=O [compound 390] (H-DCLGFMRKCIPDNDKCCRPNLVCSRTHKWCKYFF-NH2; disulfide 2-17, 9-23, 16-30)",IC50,"hNav1.7; Table 26, IonWorks Quattro, use, […], read-out: IWQ Use Nav1.7",0.06 µM
same,IC50,"hNav1.5; Table 26, IonWorks Quattro, use, […], read-out: IWQ Use Nav1.5",8.66 µM
same,IC50,"hNav1.3; Table 26, use, […]",0.04 µM
"CC[C@H](C)[C@@H]1NC(=O)[C@@H]2CSSC[C@@H]3NC(=O)[C@H](C(C)C)NC(=O)[C@H](CC(C)C)NC(=O)[C@H](CC(N)=O)NC(=O)[C@@H]4CCCN4C(=O)[C@H](CCCNC(=N)N)NC(=O)[C@H](CSSC[C@H](NC(=O)[C@@H](N)CC(=O)O)C(=O)N[C@@H](CC(C)C)C(=O)NCC(=O)N[C@@H](Cc4ccccc4)C(=O)N[C@@H](CCSC)C(=O)N[C@@H](CCCNC(=N)N)C(=O)N[C@@H](CCCCN)C(=O)N2)NC(=O)[C@H](CSSC[C@@H](C(=O)N[C@@H](C)C(=O)N[C@@H](Cc2ccc(O)cc2)C(=O)N[C@H](C(=O)N[C@@H](Cc2ccccc2)C(N)=O)C(C)C)NC(=O)[C@H](Cc2c[nH]c4ccccc24)NC(=O)[C@H](CCCCN)NC(=O)[C@H](Cc2cnc[nH]2)NC(=O)[C@H]([C@@H](C)O)NC(=O)[C@H](CCCNC(=N)N)NC(=O)[C@H](CO)NC3=O)NC(=O)[C@H](CCCCN)NC(=O)[C@H](CC(=O)O)NC(=O)[C@H](CC(N)=O)NC(=O)[C@H](CC(=O)O)NC(=O)[C@@H]2CCCN2C1=O [compound 13] (H-DCLGFMRKCIPDNDKCCRPNLVCSRTHKWCAYVF-NH2; disulfide 2-17, 9-23, 16-30)",IC50,hNav1.7,7.94 µM
same,IC50,hNav1.5; IWQ Use Nav1.5 (μM),14.5 µM
same,IC50,"hNav1.3; Table 25, use, […]",7.39 µM
"CC[C@H](C)[C@@H]1NC(=O)[C@@H]2CSSC[C@@H]3NC(=O)[C@H](C(C)C)NC(=O)[C@H](CC(C)C)NC(=O)[C@H](CC(N)=O)NC(=O)[C@@H]4CCCN4C(=O)[C@H](CCCNC(=N)N)NC(=O)[C@H](CSSC[C@H](NC(=O)[C@@H](N)CC(=O)O)C(=O)N[C@@H](CC(C)C)C(=O)NCC(=O)N[C@@H](C)C(=O)N[C@@H](Cc4ccccc4)C(=O)N[C@@H](CCCNC(=N)N)C(=O)N[C@@H](CCCCN)C(=O)N2)NC(=O)[C@H](CSSC[C@@H](C(=O)N[C@@H](CCCCN)C(=O)N[C@@H](Cc2ccc(O)cc2)C(=O)N[C@H](C(=O)N[C@@H](Cc2ccccc2)C(=O)O)C(C)C)NC(=O)[C@H](Cc2c[nH]c4ccccc24)NC(=O)[C@H](CCCNC(=N)N)NC(=O)[C@H](Cc2c[nH]cn2)NC(=O)[C@H]([C@@H](C)O)NC(=O)[C@H](CCCNC(=N)N)NC(=O)[C@H](CO)NC3=O)NC(=O)[C@H](CCCCN)NC(=O)[C@H](CC(=O)O)NC(=O)[C@H](Cc2ccc(O)cc2)NC(=O)[C@H](CC(=O)O)NC(=O)[C@@H]2CCCN2C1=O [compound 597] (H-DCLGAFRKCIPDYDKCCRPNLVCSRTHRWCKYVF-OH; disulfide 2-17, 9-23, 16-30)",IC50,hNav1.7; [1],> 5 µM
same,IC50,hNav1.5; [2],7.35 µM
same,IC50,"hNav1.3; use-dependent block, hNav1.3",1.1 µM
"CC[C@H](C)[C@@H]1NC(=O)[C@@H]2CSSC[C@@H]3NC(=O)[C@H](C(C)C)NC(=O)[C@H](CC(C)C)NC(=O)[C@H](CC(N)=O)NC(=O)[C@@H]4CCCN4C(=O)[C@H](CCCNC(=N)N)NC(=O)[C@H](CSSC[C@H](NC(=O)[C@@H](N)CC(=O)O)C(=O)N[C@@H](CC(C)C)C(=O)NCC(=O)N[C@@H](C)C(=O)N[C@@H](Cc4ccccc4)C(=O)N[C@@H](CCCNC(=N)N)C(=O)N[C@@H](CCCCN)C(=O)N2)NC(=O)[C@H](CSSC[C@@H](C(=O)N[C@@H](CCCCN)C(=O)N[C@@H](Cc2ccc(O)cc2)C(=O)N[C@H](C(=O)N[C@@H](Cc2ccccc2)C(=O)O)C(C)C)NC(=O)[C@H](Cc2c[nH]c4ccccc24)NC(=O)[C@H](CCCNC(=N)N)NC(=O)[C@H](Cc2c[nH]cn2)NC(=O)[C@H]([C@@H](C)O)NC(=O)[C@H](CCCNC(=N)N)NC(=O)[C@H](CO)NC3=O)NC(=O)[C@H](CCCCN)NC(=O)[C@H](CC(=O)O)NC(=O)[C@H](CC(N)=O)NC(=O)[C@H](CC(=O)O)NC(=O)[C@@H]2CCCN2C1=O [compound 823] (H-DCLGAFRKCIPDNDKCCRPNLVCSRTHRWCKYVF-OH; disulfide 2-17, 9-23, 16-30)",IC50,hNav1.7; [1],3.4 µM
same,IC50,hNav1.5; [2],> 5 µM
same,IC50,"hNav1.3; use-dependent block, hNav1.3",3.4 µM
"CC[C@H](C)[C@@H]1NC(=O)[C@@H]2CSSC[C@@H]3NC(=O)[C@H](C(C)C)NC(=O)[C@H](CC(C)C)NC(=O)[C@H](CC(N)=O)NC(=O)[C@@H]4CCCN4C(=O)[C@H](CCCNC(=N)N)NC(=O)[C@H](CSSC[C@H](NC(=O)[C@@H](N)CC(=O)O)C(=O)N[C@@H](CC(C)C)C(=O)NCC(=O)N[C@@H](Cc4ccccc4)C(=O)N[C@@H](CCSC)C(=O)N[C@@H](CCCNC(=N)N)C(=O)N[C@@H](CCCCN)C(=O)N2)NC(=O)[C@H](CSSC[C@@H](C(=O)N[C@@H](CCCCN)C(=O)N[C@@H](CC(N)=O)C(=O)N[C@H](C(=O)N[C@@H](Cc2ccccc2)C(N)=O)C(C)C)NC(=O)[C@H](Cc2c[nH]c4ccccc24)NC(=O)[C@H](CCCCN)NC(=O)[C@H](Cc2c[nH]cn2)NC(=O)[C@H]([C@@H](C)O)NC(=O)[C@H](CCCNC(=N)N)NC(=O)[C@H](CO)NC3=O)NC(=O)[C@H](CCCCN)NC(=O)[C@H](CC(=O)O)NC(=O)[C@H](CC(N)=O)NC(=O)[C@H](CC(=O)O)NC(=O)[C@@H]2CCCN2C1=O [compound 379] (H-DCLGFMRKCIPDNDKCCRPNLVCSRTHKWCKNVF-NH2; disulfide 2-17, 9-23, 16-30)",IC50,hNav1.7; [3],4.86 µM
same,IC50,hNav1.5; [4],10.6 µM
same,IC50,"hNav1.3; Table 25, use, […]",6.85 µM
"CC[C@H](C)[C@@H]1NC(=O)[C@@H]2CSSC[C@@H]3NC(=O)[C@H](C(C)C)NC(=O)[C@H](CC(C)C)NC(=O)[C@H](CC(N)=O)NC(=O)[C@@H]4CCCN4C(=O)[C@H](CCCNC(=N)N)NC(=O)[C@H](CSSC[C@H](NC(=O)[C@@H](N)CC(=O)O)C(=O)N[C@@H](CC(C)C)C(=O)NCC(=O)N[C@@H](Cc4ccccc4)C(=O)N[C@@H](CCSC)C(=O)N[C@@H](CCCNC(=N)N)C(=O)N[C@@H](CCCCN)C(=O)N2)NC(=O)[C@H](CSSC[C@@H](C(=O)N[C@@H](CCCCN)C(=O)N[C@@H](Cc2ccc(O)cc2)C(=O)N[C@H](C(=O)N[C@@H](Cc2ccccc2)C(N)=O)C(C)C)NC(=O)[C@H](Cc2c[nH]c4ccccc24)NC(=O)[C@H](CCCCN)NC(=O)[C@H](Cc2c[nH]cn2)NC(=O)[C@H]([C@@H](C)O)NC(=O)[C@H](CCCNC(=N)N)NC(=O)[C@H](CO)NC3=O)NC(=O)[C@H](CCCNC(=NC)NC)NC(=O)[C@H](CC(=O)O)NC(=O)[C@H](CC(N)=O)NC(=O)[C@H](CC(=O)O)NC(=O)[C@@H]2CCCN2C1=O [compound 312] (H-DCLGFMRKCIPDND[Arg(Me2s)]CCRPNLVCSRTHKWCKYVF-NH2; disulfide 2-17, 9-23, 16-30)",IC50,"hNav1.7; IonWorks Quattro, Use, read-out: IWQ Use Nav1.7",0.14 µM
same,IC50,"hNav1.5; IonWorks Quattro, Use, read-out: IWQ Use Nav1.5",9.67 µM
same,IC50,hNav1.3; Use,0.15 µM
"CC[C@H](C)[C@@H]1NC(=O)[C@@H]2CSSC[C@@H]3NC(=O)[C@H](C(C)C)NC(=O)[C@H](CC(C)C)NC(=O)[C@H](CC(N)=O)NC(=O)[C@@H]4CCCN4C(=O)[C@H](CCCNC(=N)N)NC(=O)[C@H](CSSC[C@H](NC(=O)[C@@H](N)CC(=O)O)C(=O)N[C@@H](CC(C)C)C(=O)NCC(=O)N[C@@H](Cc4ccccc4)C(=O)N[C@@H](CCSC)C(=O)N[C@@H](CCCNC(=N)N)C(=O)N[C@@H](CCCCN)C(=O)N2)NC(=O)[C@H](CSSC[C@@H](C(=O)N[C@@H](CCCCN)C(=O)N[C@H](C(=O)N[C@H](C(=O)N[C@@H](Cc2ccccc2)C(N)=O)C(C)C)C(C)C)NC(=O)[C@H](Cc2c[nH]c4ccccc24)NC(=O)[C@H](CCCCN)NC(=O)[C@H](Cc2c[nH]cn2)NC(=O)[C@H]([C@@H](C)O)NC(=O)[C@H](CCCNC(=N)N)NC(=O)[C@H](CO)NC3=O)NC(=O)[C@H](CCCCN)NC(=O)[C@H](CC(=O)O)NC(=O)[C@H](CC(N)=O)NC(=O)[C@H](CC(=O)O)NC(=O)[C@@H]2CCCN2C1=O [compound 372] (H-DCLGFMRKCIPDNDKCCRPNLVCSRTHKWCKVVF-NH2; disulfide 2-17, 9-23, 16-30)",IC50,hNav1.7; [3],0.15 µM
same,IC50,hNav1.5; [4],14.8 µM
same,IC50,"hNav1.3; Table 25, use, […]",0.08 µM
